US20010036941A1, “Use of 7-(1-aminomethyl-2-oxa-7-aza-bicyclo[3.3.0]oct-7-yl)-quinolonecarboxylic acid and -naphthyridonecarboxylic acid derivatives for the therapy of Helicobacter pylori infections and associated gastroduodenal disorders” (priority 1996, published 2001)
In brackets after ≈: the same amount, converted by molar mass. Structures can show the parent of a compound that is named as a salt.

Columns and labels:
H. pylori NCTC 11637 = experiment: MIC, agar dilution test, H. pylori NCTC 11637; assay type: cell-based; details: for MIC: Helicobacter pylori, NCTC11637, lowest concentration with no visible growth
Protocol: (§1) For inoculation, fresh Helicobacter cultures from liquid culture or suspension of the pathogens from agar plates were used. The inoculated agar plates were incubated at 37° C. in an atmosphere containing 5-10% of CO2 for 48-72 hours.

[1] = system: H. pylori clinic isolate 008; experiment: MIC, agar dilution test, H. pylori clinic isolate 008; assay type: cell-based; details: lowest concentration with no visible growth; for MIC: Helicobacter pylori
Protocol: as §1

[2] = system: H. felis strain (ATCC 49179); experiment: H. felis mouse model (clearance / eradication, urease test); assay type: in vivo, mice; details: for Clearance %: 3-day treatment of infected mice, 2 × 10 mg/kg, 6 animals per group; for Eradication of H. felis in the mouse model: animal model (H. felis, mouse), monotherapeutic treatment
Protocol: The bacteria were administered as a suspension (0.1 ml with 10^8-10^9 bacteria) 4 times within 7 days using a pharyngeal tube. Alternatively, stomach homogenates of mice which had been infected earlier were also used for infection.
In some cases, pathogen eradication 24 weeks after the end of the treatment was also determined. In accordance with the “CLO” test used in clinical diagnostics, a microtitre-based urease test was used. Defined stomach biopsy specimens were tested for change of colour within a period of 24 hours.

H. pylori = details: cited from earlier work

SMILES | melting point | also measured
Cl.NCC12CN(c3c(F)cc4c(=O)c(C(=O)O)cn(C5CC5)c4c3F)CC1CCO2 (racemic) [Substance A, rac. 7-(1-aminomethyl-2-oxa-7-aza-bicyclo[3.3.0]oct-7-yl)-1-cyclopropyl-6,8-difluoro-1,4-dihydro-4-oxo-3-quinolinecarboxylic acid hydrochloride] |  | Clearance % [2]: 67%; Eradication of the pathogen ([2]; 14-day treatment of the mice with 3×10 mg/kg): total eradication
CCCCOC(=O)c1cn(C2CC2)c2c(F)c(N3CC4CCOC4(CN)C3)c(F)cc2c1=O (stereo not drawn) [Example 11 B, 1-Butyl 7-(1-aminomethyl-2-oxa-7-aza-bicyclo[3.3.0]oct-7-yl)-1-cyclopropyl-6,8-difluoro-1,4-dihydro-4-oxo-3-quinolinecarboxylate] | 117 to 119 °C (dec.) | 
C=Cc1c(F)c(N2CC3CCOC3(CN)C2)c(F)c2c1c(=O)c(C(=O)O)cn2C1CC1.Cl (stereo not drawn) [Ref.*^)] |  | MIC H. pylori 11637 (H. pylori NCTC 11637; lowest concentration with no visible growth): 0.25 µg/mL; MIC H. pylori 008 [1]: 0.25 µg/mL
COc1c(N2CC3CCOC3(CN)C2)c(F)c(N)c2c(=O)c(C(=O)O)cn(C3CC3)c12.Cl (stereo not drawn) | 242 to 244 °C (dec.) | 
Cl.NCC12CN(c3nc4c(cc3F)c(=O)c(C(=O)O)cn4-c3cnsn3)CC1CCO2 (stereo not drawn) | 207 °C (dec.) | 
CC(C)(C)n1cc(C(=O)O)c(=O)c2cc(F)c(N3CC4CCOC4(CN)C3)cc21 (stereo not drawn) [Example 17 B, 7-(1-aminomethyl-2-oxa-7-aza-bicyclo[3.3.0]oct-7-yl)-1-tert-butyl-6-fluoro-1,4-dihydro-4-oxo-3-quinolinecarboxylic acid] | 217 to 218 °C (dec.) | 
CCOC(=O)c1cn(C2CC2)c2c(F)c(N3CC4CCOC4(CN)C3)ncc2c1=O.O=C(O)C(F)(F)F (stereo not drawn) | 199 to 200 °C (dec.) | 
NC(=O)NCC12CN(c3c(F)cc4c(=O)c(C(=O)O)cn(C5CC5)c4c3OC(F)F)CC1CCO2 (stereo not drawn) [Example 29, 1-cyclopropyl-8-difluoromethoxy-6-fluoro-1,4-dihydro-4-oxo-7-(1-ureidomethyl-2-oxa-7-aza-bicyclo[3.3.0]oct-7-yl)-3-quinolinecarboxylic acid] |  | MIC (H. pylori NCTC 11637): 8 µg/mL (≈ 16.1 µM); MIC [1]: 8 µg/mL (≈ 16.1 µM)
CC(C)(CF)n1cc(C(=O)O)c(=O)c2cc(F)c(N3CC4CCOC4(CN)C3)cc21.O=C(O)C(F)(F)F (stereo not drawn) | 197 to 198 °C (dec.) | 
NC(=O)NCC12CN(c3c(F)cc4c(=O)c(C(=O)O)cn([C@@H]5C[C@@H]5F)c4c3Cl)CC1CCO2 (stereo partly drawn) [Example 30, 8-chloro-6-fluoro-1-[(1R,2S)-2-fluoro-cyclopropyl]-1,4-dihydro-4-oxo-7-(1-ureidomethyl-2-oxa-7-aza-bicyclo[3.3.0]oct-7-yl)-3-quinolinecarboxylic acid] |  | MIC (H. pylori NCTC 11637): 0.125 µg/mL (≈ 0.259 µM); MIC [1]: 0.25 µg/mL (≈ 0.518 µM)
NCC12CN(c3c(F)cc4c(=O)c(C(=O)OCc5ccccc5)cn(C5CC5)c4c3F)CC1CCO2 (stereo not drawn) [Example 14 B, Benzyl 7-(1-aminomethyl-2-oxa-7-aza-bicyclo[3.3.0]oct-7-yl)-1-cyclopropyl-6,8-difluoro-1,4-dihydro-4-oxo-3-quinolinecarboxylate] | 118 to 119 °C (dec.) | 
COc1c(N2CC3CCOC3(CN)C2)c(F)c(N)c2c(=O)c(C(=O)O)cn(C3CC3)c12 (stereo not drawn) [Example 2 C, 5-amino-7-(1-aminomethyl-2-oxa-7-aza-bicyclo[3.3.0]oct-7-yl)-1-cyclopropyl-6-fluoro-1,4-dihydro-8-methoxy-4-oxo-3-quinolinecarboxylic acid] | 209 to 211 °C (dec.) | 
NCC12CN(c3c(F)cc4c(=O)c(C(=O)OCc5ccccc5)cn(C5CC5)c4c3F)CC1CCO2.O=C(O)C(F)(F)F (stereo not drawn) | 119 to 120 °C (dec.) | 
O=C(O)c1cn(C2CC2)c2c(Cl)c(N3C[C@@H]4CCCN[C@@H]4C3)c(F)cc2c1=O [BAY Y 3118, 8-chloro-1-cyclopropyl-7-([S,S]-2,8-diazabicyclo[4.3.0]non-8-yl)-6-fluoro-1,4-dihydro-4-oxo-3-quinolinecarboxylic acid, reference compound] |  | Eradication of H. felis in the mouse model [2]: not possible to achieve eradication
C=Cc1c(F)c(N2CC3CCOC3(CN)C2)c(F)c2c1c(=O)c(C(=O)O)cn2C1CC1.Cl (stereo not drawn) [Ref.*^), 7-(1-aminomethyl-2-oxa-7-aza-bicyclo[3.3.0]oct-7-yl)-1-cyclopropyl-6,8-difluror-1,4-dihydro-4-oxo-5-vinyl-3-quinolinecarboxylic acid hydrochloride] |  | Activity against H. pylori (H. pylori): relatively low
CCn1cc(C(=O)O)c(=O)c2cc(F)c(N3CCNC(C)C3)c(F)c21 (stereo not drawn) [lomefloxacin, reference compound] |  | Eradication of H. felis in the mouse model [2]: not capable of eradicating the germ
Cl.N#Cc1c(N2CC3CCOC3(CN)C2)c(F)cc2c(=O)c(C(=O)O)cn(C3CC3)c12 (single isomer, unassigned; (+)) [Example 5 C, (+)-7-(1-aminomethyl-2-oxa-7-aza-bicyclo[3.3.0]oct-7-yl)-8-cyano-1-cyclopropyl-6-fluoro-1,4-dihydro-4-oxo-3-quinolinecarboxylic acid hydrochloride] |  | Clearance % [2]: 100%
NCC12CN(c3cc4c(cc3F)c(=O)c3c(=O)[nH]sc3n4C3CC3)CC1CCO2.O=C(O)C(F)(F)F (stereo not drawn) | 215 °C (dec.) | 
Cc1c(F)c(N2CC3CCOC3(CN)C2)cc2c1c(=O)c(C(=O)O)cn2C1CC1.Cl (stereo not drawn) | 251 to 253 °C (dec.) | 

The next lines start with results.

melting point | SMILES | also measured
208 to 209 °C (dec.) | O=CNCC12CN(c3c(F)cc4c(=O)c(C(=O)O)cn(C5CC5)c4c3F)CC1CCO2 (stereo not drawn) [Example 31, 1-cyclopropyl-6,8-difluoro-7-(1-formylaminomethyl-2-oxa-7-aza-bicyclo[3.3.0]oct-7-yl)-1,4-dihydro-4-oxo-3-quinolinecarboxylic acid] | MIC (H. pylori NCTC 11637): 0.5 µg/mL (≈ 1.15 µM); MIC [1]: < 0.5 µg/mL
191 to 193 °C (dec.) | C[C@H]1COc2c(N3CC4CCOC4(CN)C3)c(F)cc3c(=O)c(C(=O)O)cn1c23.Cl (stereo partly drawn) | 
133 to 135 °C (dec.) | C=CCOC(=O)c1cn(C2CC2)c2c(F)c(N3CC4CCOC4(CN)C3)c(F)cc2c1=O (stereo not drawn) [Example 12 B, Allyl 7-(1-aminomethyl-2-oxa-7-aza-bicyclo[3.3.0]oct-7-yl)-1-cyclopropyl-6,8-difluoro-1,4-dihydro-4-oxo-3-quinolinecarboxylate] | 
215 to 216 °C (dec.) | COc1c(N2CC3CCOC3(CN)C2)c(F)cc2c(=O)c(C(=O)O)cn(C3CC3)c12.O=C(O)C(F)(F)F (stereo not drawn) | 
301 to 304 °C (dec.) | NCC12CN(c3ncc4c(=O)c(C(=O)O)cn(C5CC5)c4c3F)CC1CCO2 (stereo not drawn) (as salt: hydrochloride) | 
109 to 111 °C | COC(=O)c1cn(C2CC2)c2c(F)c(N3CC4CCOC4(CN)C3)c(F)cc2c1=O.Cl (stereo not drawn) | 
225 °C (dec.) | Cl.NCC12CN(c3cc4c(c(O)c3F)c(=O)c(C(=O)O)cn4C3CC3)CC1CCO2 (stereo not drawn) | 
139 to 141 °C | CCOC(=O)c1cn(C2CC2)c2c(F)c(N3CC4CCOC4(CN)C3)c(F)cc2c1=O.O=C(O)C(F)(F)F (stereo not drawn) | 
118 to 119 °C (dec.) | C=CCOC(=O)c1cn(C2CC2)c2c(F)c(N3CC4CCOC4(CN)C3)c(F)cc2c1=O.O=C(O)C(F)(F)F (stereo not drawn) | 
127 to 129 °C (dec.) | C#CCOC(=O)c1cn(C2CC2)c2c(F)c(N3CC4CCOC4(CN)C3)c(F)cc2c1=O (stereo not drawn) [Example 13 B, Propargyl 7-(1-aminomethyl-2-oxa-7-aza-bicyclo[3.3.0]oct-7-yl)-1-cyclopropyl-6,8-difluoro-1,4-dihydro-4-oxo-3-quinolinecarboxylate] | 
177 to 179 °C (dec.) | CNn1cc(C(=O)O)c(=O)c2cc(F)c(N3CC4CCOC4(CN)C3)c(F)c21.Cl (stereo not drawn) | 
233 °C | CN1COc2c(N3CC4CCOC4(CN)C3)c(F)cc3c(=O)c(C(=O)O)cn1c23.Cl (stereo not drawn) | 
144 to 146 °C (dec.) | CCOC(=O)COC(=O)c1cn(C2CC2)c2c(F)c(N3CC4CCOC4(CN)C3)c(F)cc2c1=O (stereo not drawn) [Example 15 B, Ethoxycarbonylmethyl 7-(1-aminomethyl-2-oxa-7-aza-bicyclo[3.3.0]oct-7-yl)-1-cyclopropyl-6,8-difluoro-1,4-dihydro-4-oxo-3-quinolinecarboxylate] | 
185 to 187 °C (dec.) | NC(=O)NCC12CN(c3c(F)cc4c(=O)c(C(=O)O)cn(C5CC5)c4c3F)CC1CCO2 (stereo not drawn) [Example 27, 1-cyclopropyl-6,8-difluoro-1,4-dihydro-4-oxo-7-(1-ureidomethyl-2-oxa-7-aza-bicyclo[3.3.0]oct-7-yl)-3-quinolinecarboxylic acid] | MIC (H. pylori NCTC 11637): 0.5 µg/mL (≈ 1.12 µM); MIC [1]: ≤ 0.015 µg/mL
125 to 128 °C (dec.) | Cc1nc(N2CC3CCOC3(CN)C2)c(Cl)c2c1c(=O)c(C(=O)O)cn2C1CC1.O=C(O)C(F)(F)F (stereo not drawn) | 
